Assay [1] deals with MDA-MB-453. The conditions noted are these: 72 h. The procedure, abridged:
(§1)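 Compound dissolved in 5 µl medium was placed in 384-well plates before 20 µl of breast cancer cell suspension was added, and the plates were incubated for 72 h. Cells then received 2.5 µl CellTiter-Blue for 2 h at 37 °C, and fluorescence was read at 560/590 nm. EC50 values come from percent-inhibition dose-response fits that were censored at the highest concentration, with plates normalised to vehicle and a positive kill control and rows with a zero drug sensitivity score excluded.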

Assay [2] concerns HDQ-P1. As to the kind of experiment: drug sensitivity score (DSS), CellTiter-Blue viability (DSS (AUC-based score)); higher = stronger viability inhibition; extreme values may be limits of the assay. The conditions noted are these: incubation time: 72 h. The procedure:
(§2)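 DSRT with the CellTiter-Blue (resazurin reduction) viability readout, fluorescence 560/590 nm, 72 h incubation. Plates were normalised to DMSO and benzethonium chloride controls. DSS is computed from the area under the fitted dose-response curve (5 or 9 concentrations).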

For a further assay, the system named is Hs578T. The assay is described as above. To be noted: incubation time: 72 h. The protocol:
as §2

Assay [3] relates to MDA-MB-436. The description is as above. To be noted: incubation time: 72 h. The protocol: as §2
In the next assay the test system is SK-BR-3. The description is as above. To be noted: incubation time: 72 h. The procedure: as §2
The subject of assay [4] is CAL-51. To be noted: 72 h. The procedure: (§3)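 Drug sensitivity and resistance testing (DSRT) of breast cancer cell lines in 384-well plates, 5 concentrations in 10-fold dilutions over a compound-specific 10,000-fold range. After 72 h, cytotoxicity was read by CellTox Green fluorescence and viability by CellTiter-Glo luminescence (multiplexed), normalised to DMSO and benzethonium chloride controls. EC50 is the inflection point of the fitted dose-response curve (bottom asymptote free, so it can be relative for partial curves) and is censored at the highest tested concentration. Rows with DSS 0 (no meaningful response) were excluded.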

The next assay deals with CAL-148. As to the kind of experiment: normalised viability (% of control), CellTiter-Blue; higher = more viable cells (about 100 = DMSO control). The conditions noted are these: incubation time: 72 h. The procedure:
(§4)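 DSRT, CellTiter-Blue viability, 72 h incubation. Signal is normalised to DMSO and benzethonium chloride controls. Value is the normalised response at dose 7.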
For orientation: Alamar Blue is a resazurin reagent that responds to reducing activity.

The subject of assay [5] is CAL-51. Described as above. The conditions noted are these: incubation time: 72 h. The procedure:
as §4

A further assay concerns CAL-85-1. Described as above. The conditions noted are these: incubation time: 72 h. The procedure: as §4
The test system of assay [6] is DU-4475. The description is as above. The conditions noted are these: incubation time: 72 h. The procedure:
as §4

Assay [7] deals with HDQ-P1. Described as above. The conditions noted are these: incubation time: 72 h. The procedure:
as §4

Assay [8] has as its system MDA-MB-453. Described as above. To be noted: incubation time: 72 h. The protocol: as §4
Assay [9] concerns CAL-120. As to the kind of experiment: normalised response (% of control), CellTiter-Glo; higher = more viable cells (100 = DMSO, 0 = benzethonium chloride kill control). To be noted: incubation time: 72 h. In a few lines:
(§5)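 The table gives the normalised signal for a single concentration in each entry. Breast cancer cell lines were seeded (20 µl suspension) into 384-well plates holding compound at 5 concentrations in 10-fold steps over a compound-specific 10,000-fold range and incubated 72 h, then read for CellTox Green fluorescence (485/520 nm) and CellTiter-Glo luminescence. Normalisation on each plate used 0.1 % DMSO (100) and a positive kill control (0).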
A general note: In ATP-based viability assays light output follows the ATP content of the culture.

For assay [10], the system named is DU-4475. The description is as above. The conditions noted are these: incubation time: 72 h. The procedure, abridged:
as §5

The test system of a further assay is HCC1937. The assay is described as above. To be noted: incubation time: 72 h. In a few lines:
as §5

For assay [11], the system named is MDA-MB-231. To be noted: 72 h. The procedure, abridged:
as §1

Assay [12] relates to MDA-MB-436. The conditions noted are these: 72 h. The procedure, abridged:
as §1

The subject of assay [13] is CAL-120. To be noted: 72 h. The procedure, abridged: as §1
In assay [14] the test system is MDA-MB-231. To be noted: 72 h. The procedure:
as §3
This is another data set of the same source.

Each structure is given as a SMILES string. Several values for one entry are separate records, joined by “and”; a condition that tells them apart may be missing. Identical values can stand only once.

On to `C=C1C[C@@H]2[C@H](CC[C@]3(C)C(=O)CC[C@@H]23)[C@@]2(C)C=CC(=O)C=C12` [Exemestane], for which the “EC50, CellTiter-Blue viability” value in the assay with MDA-MB-453 [1] was 916 nM. The drug sensitivity score with HDQ-P1 [2], in the assay on Hs578T, in the assay with MDA-MB-436 [3] and with SK-BR-3 was 0 in each case.

Consider `Cc1cc(Nc2cc(CN3CCOCC3)c3nc(C)c(Cc4ccc(Cl)cc4F)n3n2)n[nH]1` [Gandotinib], for which the “EC50, CellTox Green” value in the assay with CAL-51 [4] stood at 1390 nM.

In the case of `Cc1[nH]c2ccccc2c1CCNCc1ccc(/C=C/C(=O)NO)cc1` [Panobinostat] (100 nM), the normalised viability in the assay on CAL-148 worked out at 5.94%; with CAL-51 [5], 25.6%; in the assay on CAL-85-1 it was 15.6%; in the assay on DU-4475 [6], 3.38%; in the assay on HDQ-P1 [7] it was 32.3%; with MDA-MB-453 [8], 2.59%. For the same molecule, the normalised response was 41.5% in the assay on CAL-120 [9], 4.91% in the assay on DU-4475 [10] and 63.1% with HCC1937.

As for `CCc1c2c(nc3ccc(OC(=O)N4CCC(N5CCCCC5)CC4)cc13)-c1cc3c(c(=O)n1C2)COC(=O)[C@]3(O)CC` [Irinotecan] (1000 nM), the normalised viability with CAL-148 was 61.5% and 70.9%; with CAL-51 [5], 80.6% and 99.8%; in the assay with CAL-85-1, 88.7% and 94.5%; in the assay with DU-4475 [6], 73.1% and 78.7%; in the assay with HDQ-P1 [7], 98.8% and 93.5%; in the assay with MDA-MB-453 [8], 76% and 99.8%. Besides, the normalised response in the assay with CAL-120 [9] was 83.7%; in the assay with DU-4475 [10] it was 82.1%; in the assay with HCC1937, 91.8%.

For the molecule `S=P(N1CC1)(N1CC1)N1CC1` [Thio-TEPA], in the assay with MDA-MB-231 [11], the “EC50, CellTiter-Blue viability” value was determined as 12000 nM. The drug sensitivity score in the assay on HDQ-P1 [2], with Hs578T, with MDA-MB-436 [3] and in the assay with SK-BR-3 was 0 throughout.

Regarding `Oc1ccc2c(c1)CC[C@H](c1ccccc1)[C@@H]2c1ccc(OCCN2CCCC2)cc1` [Lasofoxifene] (100 nM), the normalised viability turned out to be 107% in the assay with CAL-148; 99.7% in the assay with CAL-51 [5]; 87.2% in the assay on CAL-85-1; 106% in the assay on DU-4475 [6]; 109% in the assay on HDQ-P1 [7]; 80.7% in the assay with MDA-MB-453 [8]. In addition, the normalised response was 107% in the assay on CAL-120 [9], 95.7% in the assay on DU-4475 [10] and 96% in the assay on HCC1937.

Regarding `CC(C)C[C@@H](C(=O)N[C@H](C(=O)OC1CCCC1)c1ccccc1)[C@H](O)C(=O)NO` [Tosedostat] (1000 nM), the normalised viability with CAL-148 stood at 67.8%; in the assay on CAL-51 [5] it was 77.1%; in the assay on CAL-85-1, 77%; in the assay on DU-4475 [6] it was 51%; in the assay on HDQ-P1 [7] it was 76.3%; in the assay on MDA-MB-453 [8], 41.2%. Moreover, the normalised response was 43.4% in the assay on CAL-120 [9], 88.4% in the assay with DU-4475 [10] and 67.4% in the assay on HCC1937.

For the molecule `CN(C)CCOc1ccc(/C(=C(/CCCl)c2ccccc2)c2ccccc2)cc1` [Toremifene] (1000 nM), the normalised viability in the assay on CAL-148 stood at 108%; with CAL-51 [5], 100%; in the assay on CAL-85-1, 99.7%; in the assay on DU-4475 [6] it was 97.4%; in the assay on HDQ-P1 [7], 124%; in the assay with MDA-MB-453 [8], 106%. The normalised response stood at 98.5% with CAL-120 [9], 98.3% with DU-4475 [10] and 96.7% in the assay with HCC1937.

Take `Cc1ccc(NC(=O)c2ccc(CN3CCN(C)CC3)cc2)cc1Nc1nc(-c2cccnc2)cs1` [Masitinib] (1000 nM): the normalised viability with CAL-148 was found to be 87.1%; in the assay on CAL-51 [5], 104%; in the assay on CAL-85-1 it was 94.3%; with DU-4475 [6], 120%; in the assay on HDQ-P1 [7], 105%; in the assay on MDA-MB-453 [8] it was 89.6%. Besides, the normalised response in the assay on CAL-120 [9] worked out at 95.5%; with DU-4475 [10] it was 103%; in the assay with HCC1937, 101%.

`O=P1(N(CCCl)CCCl)NCCCO1` (centres undefined) [Cyclophosphamide]: the “EC50, CellTiter-Blue viability” value in the assay on MDA-MB-436 [12] is > 40000 nM. Further, the drug sensitivity score in the assay with HDQ-P1 [2] stood at 0; in the assay on Hs578T it was 0; in the assay on MDA-MB-436 [3] it was 0.105; with SK-BR-3 it was 0.

On to `NC(=O)c1ccc(I)c([N+](=O)[O-])c1` [Iniparib] (1000 nM), for which the normalised viability in the assay on CAL-148 amounted to 87.9%; in the assay with CAL-51 [5], 95.3%; in the assay with CAL-85-1 it was 83.3%; with DU-4475 [6], 108%; in the assay on HDQ-P1 [7], 99.6%; with MDA-MB-453 [8] it was 89.2%. Besides, the normalised response with CAL-120 [9] was determined as 93.2%; in the assay on DU-4475 [10] it was 92.3%; with HCC1937, 97.7%.

`O=C(/C=C/c1cccc(S(=O)(=O)Nc2ccccc2)c1)NO` [Belinostat] (1000 nM): the normalised viability with CAL-148 was 24.3%; with CAL-51 [5], 59.9%; in the assay on CAL-85-1, 42.8%; in the assay on DU-4475 [6] it was 33.3%; in the assay on HDQ-P1 [7] it was 49.5%; with MDA-MB-453 [8], 4.06%. Also, the normalised response in the assay with CAL-120 [9] was 39.8%; with DU-4475 [10], 23.1%; in the assay on HCC1937 it was 69.9%.

For `NC(=O)c1ccc(I)c([N+](=O)[O-])c1` [Iniparib], in the assay on CAL-120 [13], the “EC50, CellTiter-Blue viability” value is 3290 nM. The drug sensitivity score with HDQ-P1 [2], in the assay with Hs578T, in the assay with MDA-MB-436 [3] and with SK-BR-3 was 0 each time.

For `CO[C@H]1C[C@@H]2CC[C@@H](C)[C@@](O)(O2)C(=O)C(=O)N2CCCC[C@H]2C(=O)O[C@H]([C@H](C)C[C@@H]2CC[C@@H](OP(C)(C)=O)[C@H](OC)C2)CC(=O)[C@H](C)/C=C(\C)[C@@H](O)[C@@H](OC)C(=O)[C@H](C)C[C@H](C)/C=C/C=C/C=C/1C` [Ridaforolimus] (100 nM), the normalised viability in the assay with CAL-148 turned out to be 37%; in the assay on CAL-51 [5], 39.4%; in the assay on CAL-85-1, 52.5%; in the assay on DU-4475 [6], 53.7%; with HDQ-P1 [7], 76.6%; in the assay on MDA-MB-453 [8], 24.1%.

Turning to `COc1cc2c(NC3CCN(C(C)C)CC3)nc(N3CCC(F)(F)CC3)nc2cc1OCCCN1CCCC1` [UNC0642], the “EC50, CellTox Green” value in the assay on MDA-MB-231 [14] came out at 2090 nM.

As for `COCC1(CO)C(=O)C2CCN1CC2` (centres undefined) [Prima-1 Met] (1000 nM), the normalised viability in the assay with CAL-148 is 102%; with CAL-51 [5], 102%; with CAL-85-1, 90.9%; in the assay with DU-4475 [6], 108%; in the assay with HDQ-P1 [7], 106%; with MDA-MB-453 [8] it was 80.5%. The normalised response amounted to 99.3% in the assay with CAL-120 [9], 105% in the assay with DU-4475 [10] and 92.2% in the assay on HCC1937.

The values above are taken from the supplement of paper PMC4862054.
